The text below walks through data of PubChem BioAssay AID651592 (Sanford-Burnham Center for Chemical Genomics, 2012).

One test deals with IL8. Briefly: inhibitors of NFkB activation in CF airway cells, SAR follow-up, KKLEB cells, panel, IL8 HTRF, NFkB-GFP (AID 651592).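 Further: immortalized cystic fibrosis airway epithelial KKLEB cells with an NF-kB GFP reporter.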 The following applies: PAF/TNFa-induced NFkB-GFP / IL8 HTRF, mean of runs, mean IC50 across panel replicates.
Test [1] deals with Interleukin-8 (Homo sapiens) (UniProt P10145). Described as above. As to conditions: PAF/TNFa-induced NFkB-GFP / IL8 HTRF.
Experiment in test [2]: as above
The following applies: PAF/TNFa-induced NFkB-GFP / IL8 HTRF, CF-PAF assay.

[3] abbreviates: mean of runs, mean IC50 across panel replicates.

Chain of Interleukin-8 (Homo sapiens) (P10145 whole entry, looked up): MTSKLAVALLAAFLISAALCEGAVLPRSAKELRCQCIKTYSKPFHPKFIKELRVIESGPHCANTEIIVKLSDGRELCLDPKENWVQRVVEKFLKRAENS

For the compound `O=C(Nc1ccc(N2CCN(C(=O)c3ccccc3Cl)CC2)cc1)c1ccncc1`, the IC50 is 35.5 µM in the test with IL8 (PAF-induced); 55.5 µM in the test on IL8 (TNFa-induced); above 66 µM in test [1] (IL8, PAF-induced, run 1); above 66 µM in test [1] (IL8, PAF-induced, run 2); above 66 µM in test [1] (IL8, PAF-induced, run 3); 1.15 µM in test [1] (IL8, PAF-induced, run 4). In addition, the IC50 is 3.67 µM in test [1] (IL8, PAF-induced, run 5); 10 µM in test [1] (IL8, PAF-induced, run 6); above 66 µM in test [1] (IL8, TNFa-induced, run 1); above 66 µM in test [1] (IL8, TNFa-induced, run 2); 2.69 µM in test [1] (IL8, TNFa-induced, run 3); above 66 µM in test [1] (IL8, TNFa-induced, run 4). Also, the IC50 in test [1] (IL8, TNFa-induced, run 5) was above 66 µM; in test [1] (IL8, TNFa-induced, run 6), above 66 µM; in test [2] (setting [3]), 11.8 µM; in test [2] (run 1), 7.29 µM; in test [2] (run 2), 8.71 µM; in test [2] (run 3) it was 9.34 µM. In addition, the IC50 in test [2] (run 4) was determined as 5.23 µM; in test [2] (run 5) it was 11.3 µM; in test [2] (run 6), 29 µM.
`CCOc1ccc(NCc2cc3c(C)nn(-c4ccccc4)c3[nH]c2=O)cc1`: the IC50 with IL8 (PAF-induced) is 10.5 µM; in the test with IL8 (TNFa-induced), above 66 µM; in test [1] (IL8, PAF-induced, run 1) it was 10.3 µM; in test [1] (IL8, PAF-induced, run 2), 13.9 µM; in test [1] (IL8, PAF-induced, run 3), 14.1 µM; in test [1] (IL8, PAF-induced, run 4), 7.93 µM. In addition, the IC50 in test [1] (IL8, PAF-induced, run 5) is 8.32 µM; in test [1] (IL8, PAF-induced, run 6), 8.5 µM; in test [1] (IL8, TNFa-induced, run 1) it was above 66 µM; in test [1] (IL8, TNFa-induced, run 2), above 66 µM; in test [1] (IL8, TNFa-induced, run 3), above 66 µM; in test [1] (IL8, TNFa-induced, run 4) it was above 66 µM. Further, the half-maximal inhibitory concentration (IC50) in test [1] (IL8, TNFa-induced, run 5) is above 66 µM; in test [1] (IL8, TNFa-induced, run 6) it was above 66 µM; in test [2] (setting [3]), 12.6 µM; in test [2] (run 1) it was 13 µM; in test [2] (run 2), 15.9 µM; in test [2] (run 3), 16.2 µM. Also, the figures for the IC50 in test [2] (run 4), in test [2] (run 5) and in test [2] (run 6) were 9.13 µM, 10.5 µM and 11.2 µM, respectively.
Regarding `O=C(Nc1ccc(N2CCN(C(=O)c3ccccc3)CC2)cc1)c1cc(Br)cc(Br)c1`, the IC50 is above 66 µM with IL8 (PAF-induced); above 66 µM in the test with IL8 (TNFa-induced); above 66 µM in test [1] (IL8, PAF-induced, run 1); above 66 µM in test [1] (IL8, PAF-induced, run 2); above 66 µM in test [1] (IL8, PAF-induced, run 3); above 66 µM in test [1] (IL8, PAF-induced, run 4). In addition, the IC50 in test [1] (IL8, PAF-induced, run 5) was above 66 µM; in test [1] (IL8, PAF-induced, run 6), above 66 µM; in test [1] (IL8, TNFa-induced, run 1) it was above 66 µM; in test [1] (IL8, TNFa-induced, run 2) it was above 66 µM; in test [1] (IL8, TNFa-induced, run 3), above 66 µM; in test [1] (IL8, TNFa-induced, run 4), above 66 µM. Also, the IC50 in test [1] (IL8, TNFa-induced, run 5) was above 66 µM; in test [1] (IL8, TNFa-induced, run 6), above 66 µM; in test [2] (setting [3]) it was above 66 µM; in test [2] (run 1), above 66 µM; in test [2] (run 2) it was above 66 µM; in test [2] (run 3) it was above 66 µM. Also, the half-maximal inhibitory concentration (IC50) in test [2] (run 4), in test [2] (run 5) and in test [2] (run 6) was above 66 µM each time.
Consider `CCOc1ccc(NCc2cc3c(C(C)(C)C)nn(-c4ccc(Cl)cc4)c3[nH]c2=O)cc1`, for which the IC50 is 0.228 µM in the test with IL8 (PAF-induced); above 66 µM with IL8 (TNFa-induced); 0.216 µM in test [1] (IL8, PAF-induced, run 1); 0.248 µM in test [1] (IL8, PAF-induced, run 2); 0.277 µM in test [1] (IL8, PAF-induced, run 3); 0.149 µM in test [1] (IL8, PAF-induced, run 4). In addition, the IC50 was 0.236 µM in test [1] (IL8, PAF-induced, run 5); 0.246 µM in test [1] (IL8, PAF-induced, run 6); above 66 µM in test [1] (IL8, TNFa-induced, run 1); above 66 µM in test [1] (IL8, TNFa-induced, run 2); above 66 µM in test [1] (IL8, TNFa-induced, run 3); above 66 µM in test [1] (IL8, TNFa-induced, run 4). The IC50 in test [1] (IL8, TNFa-induced, run 5) is above 66 µM; in test [1] (IL8, TNFa-induced, run 6) it was above 66 µM; in test [2] (setting [3]) it was 17.9 µM; in test [2] (run 1) it was 9.61 µM; in test [2] (run 2), 10.1 µM; in test [2] (run 3), 10.2 µM. Further, the IC50 in test [2] (run 4) was above 66 µM; in test [2] (run 5), 0.52 µM; in test [2] (run 6), 10.8 µM.
With `O=C(Nc1ccc(N2CCN(C(=O)c3ccc(F)cc3)CC2)cc1)c1cc(Br)cc(Br)c1`, the IC50 with IL8 (PAF-induced) is above 66 µM; in the test with IL8 (TNFa-induced), above 66 µM; in test [1] (IL8, PAF-induced, run 1), above 66 µM; in test [1] (IL8, PAF-induced, run 2) it was above 66 µM; in test [1] (IL8, PAF-induced, run 3), above 66 µM; in test [1] (IL8, PAF-induced, run 4), above 66 µM. The 50% inhibitory concentration (IC50) in test [1] (IL8, PAF-induced, run 5) was above 66 µM; in test [1] (IL8, PAF-induced, run 6), above 66 µM; in test [1] (IL8, TNFa-induced, run 1) it was above 66 µM; in test [1] (IL8, TNFa-induced, run 2) it was above 66 µM; in test [1] (IL8, TNFa-induced, run 3), above 66 µM; in test [1] (IL8, TNFa-induced, run 4), above 66 µM. In addition, the IC50 was above 66 µM in test [1] (IL8, TNFa-induced, run 5); above 66 µM in test [1] (IL8, TNFa-induced, run 6); above 66 µM in test [2] (setting [3]); above 66 µM in test [2] (run 1); above 66 µM in test [2] (run 2); above 66 µM in test [2] (run 3). Also, the IC50 in test [2] (run 4), in test [2] (run 5) and in test [2] (run 6) was above 66 µM each time.
`CCOc1ccc(NCc2cc3c(-c4ccc(OC)c(OC)c4)nn(-c4ccccc4)c3[nH]c2=O)cc1`: the IC50 with IL8 (PAF-induced) was 1.62 µM; with IL8 (TNFa-induced) it was above 66 µM; in test [1] (IL8, PAF-induced, run 1), 1.25 µM; in test [1] (IL8, PAF-induced, run 2), 1.71 µM; in test [1] (IL8, PAF-induced, run 3), 1.85 µM; in test [1] (IL8, PAF-induced, run 4), 1.33 µM. The IC50 is 1.66 µM in test [1] (IL8, PAF-induced, run 5); 1.89 µM in test [1] (IL8, PAF-induced, run 6); above 66 µM in test [1] (IL8, TNFa-induced, run 1); above 66 µM in test [1] (IL8, TNFa-induced, run 2); above 66 µM in test [1] (IL8, TNFa-induced, run 3); above 66 µM in test [1] (IL8, TNFa-induced, run 4). Moreover, the IC50 in test [1] (IL8, TNFa-induced, run 5) is above 66 µM; in test [1] (IL8, TNFa-induced, run 6), above 66 µM; in test [2] (setting [3]), 25.2 µM; in test [2] (run 1) it was 18.7 µM; in test [2] (run 2), 44.7 µM; in test [2] (run 3), 48 µM. Moreover, the IC50 in test [2] (run 4) worked out at 10.4 µM; in test [2] (run 5), 12.9 µM; in test [2] (run 6) it was 16.3 µM.
As to `O=C(Nc1ccc(N2CCN(C(=O)c3ccccc3)CC2)cc1)c1cncc(Br)c1`, the IC50 in the test with IL8 (PAF-induced) was found to be 9.06 µM; with IL8 (TNFa-induced) it was 60.9 µM; in test [1] (IL8, PAF-induced, run 1), 4.34 µM; in test [1] (IL8, PAF-induced, run 2), 7.55 µM; in test [1] (IL8, PAF-induced, run 3), 9.86 µM; in test [1] (IL8, PAF-induced, run 4) it was 0.898 µM. For the same compound, the half-maximal inhibitory concentration (IC50) in test [1] (IL8, PAF-induced, run 5) was 7.37 µM; in test [1] (IL8, PAF-induced, run 6) it was 24.3 µM; in test [1] (IL8, TNFa-induced, run 1), above 66 µM; in test [1] (IL8, TNFa-induced, run 2) it was above 66 µM; in test [1] (IL8, TNFa-induced, run 3) it was 35.6 µM; in test [1] (IL8, TNFa-induced, run 4) it was above 66 µM. Further, the IC50 is above 66 µM in test [1] (IL8, TNFa-induced, run 5); above 66 µM in test [1] (IL8, TNFa-induced, run 6); 3.75 µM in test [2] (setting [3]); 2.7 µM in test [2] (run 1); 3.16 µM in test [2] (run 2); 3.43 µM in test [2] (run 3). The IC50 in test [2] (run 4) is 2.93 µM; in test [2] (run 5), 4.5 µM; in test [2] (run 6), 5.77 µM.
As for `O=C(Nc1ccc(N2CCN(C(=O)c3ccc(F)cc3)CC2)cc1)c1ccncc1`, the half-inhibitory concentration (IC50) in the test with IL8 (PAF-induced) was above 66 µM; in the test on IL8 (TNFa-induced), above 66 µM; in test [1] (IL8, PAF-induced, run 1), above 66 µM; in test [1] (IL8, PAF-induced, run 2) it was above 66 µM; in test [1] (IL8, PAF-induced, run 3), above 66 µM; in test [1] (IL8, PAF-induced, run 4) it was above 66 µM. Moreover, the IC50 is above 66 µM in test [1] (IL8, PAF-induced, run 5); above 66 µM in test [1] (IL8, PAF-induced, run 6); above 66 µM in test [1] (IL8, TNFa-induced, run 1); above 66 µM in test [1] (IL8, TNFa-induced, run 2); above 66 µM in test [1] (IL8, TNFa-induced, run 3); above 66 µM in test [1] (IL8, TNFa-induced, run 4). In addition, the IC50 in test [1] (IL8, TNFa-induced, run 5) was above 66 µM; in test [1] (IL8, TNFa-induced, run 6), above 66 µM; in test [2] (setting [3]), above 66 µM; in test [2] (run 1) it was above 66 µM; in test [2] (run 2), above 66 µM; in test [2] (run 3), above 66 µM. The IC50 in test [2] (run 4), in test [2] (run 5) and in test [2] (run 6) was above 66 µM in each case.
In the case of `O=C(Nc1ccc(N2CCN(C(=O)c3ccccc3)CC2)cc1)c1cccnc1`, the IC50 is 40.3 µM in the test with IL8 (PAF-induced); above 66 µM in the test with IL8 (TNFa-induced); above 66 µM in test [1] (IL8, PAF-induced, run 1); above 66 µM in test [1] (IL8, PAF-induced, run 2); 7.51 µM in test [1] (IL8, PAF-induced, run 3); above 66 µM in test [1] (IL8, PAF-induced, run 4). Moreover, the IC50 in test [1] (IL8, PAF-induced, run 5) was above 66 µM; in test [1] (IL8, PAF-induced, run 6) it was 36.4 µM; in test [1] (IL8, TNFa-induced, run 1) it was above 66 µM; in test [1] (IL8, TNFa-induced, run 2), above 66 µM; in test [1] (IL8, TNFa-induced, run 3), above 66 µM; in test [1] (IL8, TNFa-induced, run 4), above 66 µM. Besides, the IC50 is above 66 µM in test [1] (IL8, TNFa-induced, run 5); above 66 µM in test [1] (IL8, TNFa-induced, run 6); 42.9 µM in test [2] (setting [3]); 17 µM in test [2] (run 1); 20.7 µM in test [2] (run 2); 21.9 µM in test [2] (run 3). For the same compound, the IC50 in test [2] (run 4), in test [2] (run 5) and in test [2] (run 6) was above 66 µM each time.
